We go through 25 molecules from patent publication US11884675B2, “Heterocyclic compounds as triggering receptor expressed on myeloid cells 2 agonists and methods of use” (AMGEN INC., priority 2020, dated 2024).

The structures appear in SMILES notation.

As a reminder, the EC50 is the concentration that produces a half-maximal response. Higher therefore signals weaker potency.

Sequence of hTREM2 (Q9NZC2 19-230): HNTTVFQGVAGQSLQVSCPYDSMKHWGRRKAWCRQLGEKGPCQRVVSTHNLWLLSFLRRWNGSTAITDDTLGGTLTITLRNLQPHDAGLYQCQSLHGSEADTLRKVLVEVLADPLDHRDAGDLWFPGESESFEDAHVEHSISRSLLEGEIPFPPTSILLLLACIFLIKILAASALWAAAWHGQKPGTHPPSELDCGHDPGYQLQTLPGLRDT
Sequence of hTREM2 (O43914 22-113 partner): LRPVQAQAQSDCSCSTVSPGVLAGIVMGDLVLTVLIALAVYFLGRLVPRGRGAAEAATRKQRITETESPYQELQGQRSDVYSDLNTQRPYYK

The target in this assay is hTREM2 (Homo sapiens, UniProt Q9NZC2). Nature of the assay: TREM2 activity by cellular Syk phosphorylation (AlphaScreen/AlphaLISA) in TREM2/DAP12-HEK cells, used for Examples 1-305. Type of assay: cell-based. Particulars: HEK293 Cells. Details: expressed in transfected cells. The gist of the method:
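Phospho-Syk (Tyr525/526) over total Syk quantified by AlphaScreen in lysates of cloned TREM2/DAP12-overexpressing HEK293 cells after 45 min compound treatment at room temperature, 1% final DMSO. Values expressed relative to 100 nM anti-TREM2 antibody (positive) and isotype IgG (negative) controls; curves fitted with 4-parameter logistic model.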
Regarding `Cc1ccc(-c2nc(N3CCO[C@@H](c4cnn(C5CC5)c4)C3)nc3nc(C)ccc23)c(F)c1` [Example 95, 2-((2S)-2-(1-cyclopropyl-1H-pyrazol-4-yl)-4-morpholinyl)-4-(2-fluoro-4-methylphenyl)-7-methylpyrido[2,3-d]pyrimidine], the EC50 was no more than 50 nM; the “hTREM2 Emax” value is “+++ (Emax>150 and ≤250)”. For the molecule `Cc1ccc(-c2nc(N3CCO[C@@H](c4ccnc(C)c4)C3)nc3nc(C)ccc23)c(F)c1` [Example 96, 4-(2-fluoro-4-methylphenyl)-7-methyl-2-((2S)-2-(2-methyl-4-pyridinyl)-4-morpholinyl)pyrido[2,3-d]pyrimidine], the EC50 was no more than 50 nM and the “hTREM2 Emax” value is on record as “++++ (Emax>250)”.

Turning to `Cc1ccc2c(n1)nc(N1CCO[C@@H](c3cnn(C)c3)C1)nc2[C@H]1C[C@H](C(F)(F)F)C1` [Example 97, 7-methyl-2-((2S)-2-(1-methyl-1H-pyrazol-4-yl)-4-morpholinyl)-4-(trans-3-(trifluoromethyl)cyclobutyl)pyrido[2,3-d]pyrimidine], the EC50 was in the range of 500 to 3000 nM; the “hTREM2 Emax” value was “+ (Emax>45 and ≤100)”. `Cc1ccc2c(n1)nc(N1CCO[C@@H](c3cnn(C4CC4)c3)C1)nc2[C@H]1C[C@H](C(F)(F)F)C1` [Example 98, 2-((2S)-2-(1-cyclopropyl-1H-pyrazol-4-yl)-4-morpholinyl)-7-methyl-4-(trans-3-(trifluoromethyl)cyclobutyl)pyrido[2,3-d]pyrimidine]: the EC50 was 50 to 500 nM; the “hTREM2 Emax” value is “++ (Emax>100 and ≤150)”. Take `Cc1cc([C@H]2CN(c3nc4nc(C)ccc4c([C@H]4C[C@H](C(F)(F)F)C4)n3)CCO2)ccn1` [Example 99, 7-methyl-2-((2S)-2-(2-methyl-4-pyridinyl)-4-morpholinyl)-4-(trans-3-(trifluoromethyl)cyclobutyl)pyrido[2,3-d]pyrimidine]: the EC50 was no more than 50 nM; the “hTREM2 Emax” value is “+ (Emax>45 and ≤100)”. Regarding `Cc1ccc2c(C34CC(C(F)(F)F)(C3)C4)nc(N3CCO[C@@H](c4cnn(C)c4)C3)nc2n1` [Example 100, 7-methyl-2-((2S)-2-(1-methyl-1H-pyrazol-4-yl)-4-morpholinyl)-4-(3-(trifluoromethyl)bicyclo[1.1.1]pentan-1-yl)pyrido[2,3-d]pyrimidine], the EC50 lay in the range of 50 to 500 nM; the “hTREM2 Emax” value was “++ (Emax>100 and ≤150)”. Take `Cc1ccc2c(C34CC(C(F)(F)F)(C3)C4)nc(N3CCO[C@@H](c4cnn(C5CC5)c4)C3)nc2n1` [Example 101, 2-((2S)-2-(1-cyclopropyl-1H-pyrazol-4-yl)-4-morpholinyl)-7-methyl-4-(3-(trifluoromethyl)bicyclo[1.1.1]pentan-1-yl)pyrido[2,3-d]pyrimidine]: the EC50 fell in the range of 3000 to 100000 nM. Consider `Cc1cc([C@H]2CN(c3nc(C45CC(C(F)(F)F)(C4)C5)c4ccc(C)nc4n3)CCO2)ccn1` [Example 102, 7-methyl-2-((2S)-2-(2-methyl-4-pyridinyl)-4-morpholinyl)-4-(3-(trifluoromethyl)bicyclo[1.1.1]pentan-1-yl)pyrido[2,3-d]pyrimidine], for which the EC50 is no more than 50 nM; the “hTREM2 Emax” value is “+ (Emax>45 and ≤100)”. `Cc1cc2c(-c3ccc(Cl)cc3F)nc(N3CCO[C@@H](c4cnn(C)c4)C3)nc2nc1C` [Example 103, 4-(4-chloro-2-fluorophenyl)-6,7-dimethyl-2-((2S)-2-(1-methyl-1H-pyrazol-4-yl)-4-morpholinyl)pyrido[2,3-d]pyrimidine]: the EC50 is no more than 50 nM and the “hTREM2 Emax” value is on record as “++++ (Emax>250)”. Regarding `Cc1cc2c(OCC3CC(F)(F)C3)nc(N3CCO[C@@H](c4cnn(C)c4)C3)nc2nc1C` [Example 108, 4-((3,3-difluorocyclobutyl)methoxy)-6,7-dimethyl-2-((2S)-2-(1-methyl-1H-pyrazol-4-yl)-4-morpholinyl)pyrido[2,3-d]pyrimidine], the EC50 lay in the range of 50 to 500 nM; the “hTREM2 Emax” value is “+ (Emax>45 and ≤100)”.

In the case of `Cc1cc2c(OC[C@H]3C[C@@H](C(F)(F)F)C3)nc(N3CCO[C@@H](c4cnn(C)c4)C3)nc2nc1C` [Example 109, 6,7-dimethyl-2-((2S)-2-(1-methyl-1H-pyrazol-4-yl)-4-morpholinyl)-4-((cis-3-(trifluoromethyl)cyclobutyl)methoxy)pyrido[2,3-d]pyrimidine], the EC50 fell in the range of 3000 to 100000 nM. Consider `Cc1cc2c(OC[C@@H]3C[C@H]3C(F)(F)F)nc(N3CCO[C@@H](c4cnn(C)c4)C3)nc2nc1C` [Example 110, 6,7-dimethyl-2-((2S)-2-(1-methyl-1H-pyrazol-4-yl)-4-morpholinyl)-4-(((1R,2R)-2-(trifluoromethyl)cyclopropyl)methoxy)pyrido[2,3-d]pyrimidine], for which the EC50 lay within 500 to 3000 nM; the “hTREM2 Emax” value was “+ (Emax>45 and ≤100)”. For `Cc1cc2c(OC[C@H]3CC3(C)C)nc(N3CCO[C@@H](c4cnn(C)c4)C3)nc2nc1C` [Example 111, 4-(((1S)-2,2-dimethylcyclopropyl)methoxy)-6,7-dimethyl-2-((2S)-2-(1-methyl-1H-pyrazol-4-yl)-4-morpholinyl)pyrido[2,3-d]pyrimidine], the concentration giving a half-maximal response (EC50) fell in the range of 500 to 3000 nM; the “hTREM2 Emax” value was “+ (Emax>45 and ≤100)”. Take `Cc1cc2c(nc(N3CCO[C@@H](c4cnn(C)c4)C3)nc2[C@H]2C[C@H](C(F)(F)F)C2)nc1C` [Example 112, 6,7-dimethyl-2-((2S)-2-(1-methyl-1H-pyrazol-4-yl)-4-morpholinyl)-4-(trans-3-(trifluoromethyl)cyclobutyl)pyrido[2,3-d]pyrimidine]: the EC50 is no more than 50 nM; the “hTREM2 Emax” value is “+++ (Emax>150 and ≤250)”. `Cc1cc2c(nc(N3CCO[C@@H](c4cnn(C5CC5)c4)C3)nc2[C@H]2C[C@H](C(F)(F)F)C2)nc1C` [Example 113, 2-((2S)-2-(1-cyclopropyl-1H-pyrazol-4-yl)-4-morpholinyl)-6,7-dimethyl-4-(trans-3-(trifluoromethyl)cyclobutyl)pyrido[2,3-d]pyrimidine]: the EC50 is no more than 50 nM; the “hTREM2 Emax” value is “++ (Emax>100 and ≤150)”.

In the case of `Cc1cc([C@H]2CN(c3nc4nc(C)c(C)cc4c([C@H]4C[C@H](C(F)(F)F)C4)n3)CCO2)ccn1` [Example 115, 6,7-dimethyl-2-((2S)-2-(2-methyl-4-pyridinyl)-4-morpholinyl)-4-(trans-3-(trifluoromethyl)cyclobutyl)pyrido[2,3-d]pyrimidine], the EC50 is no more than 50 nM; the “hTREM2 Emax” value is “++ (Emax>100 and ≤150)”.

For `Cc1nc2nc(N3CCO[C@@H](c4cnn(C)c4)C3)nc(-c3ccc(Cl)cc3F)c2cc1Cl` [Example 116, 6-chloro-4-(4-chloro-2-fluorophenyl)-7-methyl-2-((2S)-2-(1-methyl-1H-pyrazol-4-yl)-4-morpholinyl)pyrido[2,3-d]pyrimidine], the EC50 was no more than 50 nM; the “hTREM2 Emax” value was “+++ (Emax>150 and ≤250)”. Turning to `CN1Cc2c(cc(N3CCO[C@@H](c4cnn(C)c4)C3)nc2[C@H]2C[C@@H](C(F)(F)F)C2)C1=O` [Example 117, 2-methyl-6-((2S)-2-(1-methyl-1H-pyrazol-4-yl)-4-morpholinyl)-4-(cis-3-(trifluoromethyl)cyclobutyl)-2,3-dihydro-1H-pyrrolo[3,4-c]pyridin-1-one], the EC50 was 3000 to 100000 nM. In the case of `C[C@H]1CN(c2cc3c(c(-c4ccc(Cl)cc4F)n2)CN(C)C3=O)CCO1` [Example 118, 4-(4-chloro-2-fluorophenyl)-2-methyl-6-((2S)-2-methyl-4-morpholinyl)-2,3-dihydro-1H-pyrrolo[3,4-c]pyridin-1-one], the EC50 was in the range of 500 to 3000 nM; the “hTREM2 Emax” value was “+ (Emax>45 and ≤100)”. Consider `CN1Cc2c(cc(N3CCO[C@@H](c4cnn(C)c4)C3)nc2-c2ccc(Cl)cc2F)C1=O` [Example 119, 4-(4-chloro-2-fluorophenyl)-2-methyl-6-((2S)-2-(1-methyl-1H-pyrazol-4-yl)-4-morpholinyl)-2,3-dihydro-1H-pyrrolo[3,4-c]pyridin-1-one], for which the EC50 is 50 to 500 nM; the “hTREM2 Emax” value was “++ (Emax>100 and ≤150)”. As to `CN1Cc2c(cc(N3CCO[C@@H](c4cnn(C5CC5)c4)C3)nc2-c2ccc(Cl)cc2F)C1=O` [Example 120, 4-(4-chloro-2-fluorophenyl)-6-((2S)-2-(1-cyclopropyl-1H-pyrazol-4-yl)-4-morpholinyl)-2-methyl-2,3-dihydro-1H-pyrrolo[3,4-c]pyridin-1-one], the EC50 fell in the range of 50 to 500 nM and the “hTREM2 Emax” value is “++++ (Emax>250)”. In the same order, the values of `CCN1Cc2c(cc(N3CCO[C@@H](c4cnn(C)c4)C3)nc2-c2ccc(Cl)cc2F)C1=O` [Example 121, 4-(4-chloro-2-fluorophenyl)-2-ethyl-6-((2S)-2-(1-methyl-1H-pyrazol-4-yl)-4-morpholinyl)-2,3-dihydro-1H-pyrrolo[3,4-c]pyridin-1-one] are 50 to 500 nM and “++++ (Emax>250)”. Regarding `CC(C)N1Cc2c(cc(N3CCO[C@@H](c4cnn(C)c4)C3)nc2-c2ccc(Cl)cc2F)C1=O` [Example 122, 4-(4-chloro-2-fluorophenyl)-6-((2S)-2-(1-methyl-1H-pyrazol-4-yl)-4-morpholinyl)-2-(2-propanyl)-2,3-dihydro-1H-pyrrolo[3,4-c]pyridin-1-one], the half-maximal effective concentration (EC50) is 500 to 3000 nM; the “hTREM2 Emax” value is “+++ (Emax>150 and ≤250)”. For the molecule `Cc1nc2nc(N3CCO[C@@H](c4cnn(C)c4)C3)nc(C3=CCC(F)(F)CC3)c2nc1C` [Example 125, 4-(4,4-difluoro-1-cyclohexen-1-yl)-6,7-dimethyl-2-((2S)-2-(1-methyl-1H-pyrazol-4-yl)-4-morpholinyl)pteridine], the EC50 was in the range of 50 to 500 nM; the “hTREM2 Emax” value is “+++ (Emax>150 and ≤250)”.

As to `Cc1nc2nc(N3CCO[C@@H](c4cnn(C)c4)C3)nc(C3=CCCC3)c2nc1C` [Example 128, 4-(1-cyclopenten-1-yl)-6,7-dimethyl-2-((2S)-2-(1-methyl-1H-pyrazol-4-yl)-4-morpholinyl)pteridine], the EC50 is 500 to 3000 nM; the “hTREM2 Emax” value was “+ (Emax>45 and ≤100)”.
